Source: US5093231A, “Substrate composition for alkaline phosphatase and method for assay using same” (Becton, Dickinson and Company, priority 1991, dated 1992)

Tests used:
[1] = Accelerated stability of levamisole (and its p-bromo analogue) in various buffers; functional amount measured by inhibition of bovine liver AP; details: pH 9.8
Procedure: (§1) Various buffers were prepared at 100 mM concentrations, containing 1 mM magnesium chloride, and adjusted to pH 9.8. […] (accelerated decomposition study). […] Bovine liver AP was added and the reaction kinetics were followed at 405 nm.

[2] = test system: bovine liver alkaline phosphatase; experiment: as above; details: for Percent of Functional Levamisole Remaining: Day 0
Procedure: as §1

[3] = test system: bovine liver alkaline phosphatase; experiment: Potency of the p-bromo analogue relative to levamisole as AP inhibitor; type: biochemical
AP from the intestine = details: Van Belle, Biochim. et Biophys. Acta., 289, 158 (1972); cited from earlier work
[4] = cited from earlier work

Brc1ccc([C@H]2CN3CCSC3=N2)cc1 [p-bromolevamisole]
remaining at 72 h, 100 µM ([1]; amp buffer): 55.4% | remaining at 216 h, 100 µM ([1]; amp buffer): 23.9% | remaining at 408 h, 100 µM ([1]; amp buffer): 9.6% | remaining at 72 h, 100 µM ([1]; ampd buffer): 74% | remaining at 216 h, 100 µM ([1]; ampd buffer): 37.3% | remaining at 408 h, 100 µM ([1]; ampd buffer): 18.5% | remaining at 72 h, 100 µM ([1]; carbonate buffer): 44.4% | remaining at 216 h, 100 µM ([1]; carbonate buffer): 10.8% | remaining at 408 h, 100 µM ([1]; carbonate buffer): 2.62% | remaining at 72 h, 100 µM ([1]; diethanolamine buffer): 33.6% | remaining at 216 h, 100 µM ([1]; diethanolamine buffer): 1.3% | remaining at 408 h, 100 µM ([1]; diethanolamine buffer): 0.53% | remaining at 72 h, 100 µM ([1]; glycine buffer): 0.29% | remaining at 216 h, 100 µM ([1]; glycine buffer): 0.25% | remaining at 408 h, 100 µM ([1]; glycine buffer): 0% | remaining at 72 h, 100 µM ([1]; triethanolamine buffer): 59% | remaining at 216 h, 100 µM ([1]; triethanolamine buffer): 22.1% | remaining at 408 h, 100 µM ([1]; triethanolamine buffer): 7.86% | Percent of Functional Levamisole Remaining ([2]; AMP buffer, as in Example I (pH 9.8, 45° C.), 0.1 mM p-bromolevamisole): 100% | Percent of Functional Levamisole Remaining ([2]; AMPD buffer, as in Example I (pH 9.8, 45° C.), 0.1 mM p-bromolevamisole): 100% | Percent of Functional Levamisole Remaining ([2]; Carbonate buffer, as in Example I (pH 9.8, 45° C.), 0.1 mM p-bromolevamisole): 100% | Percent of Functional Levamisole Remaining ([2]; Diethanolamine buffer, as in Example I (pH 9.8, 45° C.), 0.1 mM p-bromolevamisole): 100% | Percent of Functional Levamisole Remaining ([2]; Glycine buffer, as in Example I (pH 9.8, 45° C.), 0.1 mM p-bromolevamisole): 100% | Percent of Functional Levamisole Remaining ([2]; Triethanolamine buffer, as in Example I (pH 9.8, 45° C.), 0.1 mM p-bromolevamisole): 100% | decomposition compared with the parent compound levamisole ([2]; pH 9.8, 45° C., summary of Table II): quite a bit faster than the parent compound | fold more potent than levamisole [3]: approximately 10 fold

c1ccc([C@H]2CN3CCSC3=N2)cc1 [levamisole, (-)2,3,5,6-tetrahydro-6-phenylimidazo[1,2-b]thiazole]
remaining at 72 h, 1000 µM ([1]; amp buffer): 118% | remaining at 216 h, 1000 µM ([1]; amp buffer): 107% | remaining at 408 h, 1000 µM ([1]; amp buffer): 87.1% | remaining at 72 h, 1000 µM ([1]; ampd buffer): 110% | remaining at 216 h, 1000 µM ([1]; ampd buffer): 90.2% | remaining at 408 h, 1000 µM ([1]; ampd buffer): 71.7% | remaining at 72 h, 1000 µM ([1]; carbonate buffer): 63.8% | remaining at 216 h, 1000 µM ([1]; carbonate buffer): 32.1% | remaining at 408 h, 1000 µM ([1]; carbonate buffer): 13.7% | remaining at 72 h, 1000 µM ([1]; diethanolamine buffer): 79.8% | remaining at 216 h, 1000 µM ([1]; diethanolamine buffer): 9.12% | remaining at 408 h, 1000 µM ([1]; diethanolamine buffer): 0.31% | remaining at 72 h, 1000 µM ([1]; glycine buffer): 0.08% | remaining at 216 h, 1000 µM ([1]; glycine buffer): 0.02% | remaining at 408 h, 1000 µM ([1]; glycine buffer): 0% | remaining at 72 h, 1000 µM ([1]; triethanolamine buffer): 94.4% | remaining at 216 h, 1000 µM ([1]; triethanolamine buffer): 66.6% | remaining at 408 h, 1000 µM ([1]; triethanolamine buffer): 37.6% | Percent of Functional Levamisole Remaining ([2]; AMP buffer 100 mM, 1 mM magnesium chloride, pH 9.8, 45° C., 1 mM levamisole): 100% | Percent of Functional Levamisole Remaining ([2]; AMPD buffer 100 mM, 1 mM magnesium chloride, pH 9.8, 45° C., 1 mM levamisole): 100% | Percent of Functional Levamisole Remaining ([2]; Carbonate buffer 100 mM, 1 mM magnesium chloride, pH 9.8, 45° C., 1 mM levamisole): 100% | Percent of Functional Levamisole Remaining ([2]; Diethanolamine buffer 100 mM, 1 mM magnesium chloride, pH 9.8, 45° C., 1 mM levamisole): 100% | Percent of Functional Levamisole Remaining ([2]; Glycine buffer 100 mM, 1 mM magnesium chloride, pH 9.8, 45° C., 1 mM levamisole): 100% | Percent of Functional Levamisole Remaining ([2]; Triethanolamine buffer 100 mM, 1 mM magnesium chloride, pH 9.8, 45° C., 1 mM levamisole): 100% | stability of levamisole compared between buffers ([2]; pH 9.8, 45° C., summary of Table I): substantially greater in AMPD and particularly in AMP than in other buffers | fold less potent toward AP from the intestine than toward AP from several mammalian tissue types (AP from the intestine): approximately 100 fold | decomposition rate at pH 7.9 relative to pH 2 ([4]; elevated temperature, Dickinson et al., Analyst, 96, 248 (1971)): 70 times | pH of solution at which levamisole hydrolyzes ([4]; in solution): ≥ 4
